Test results reported in patent publication EP0559700B1, “NOVEL PILOCARPINE DERIVATIVES AND PROCESS FOR THEIR PREPARATION” (Santen Oy, priority 1990, dated 1992).

How the values were obtained:
[1] = Stability of the compounds: buffer hydrolysis (half-times, shelf-life); type: physicochemical
Procedure: The stability of the test compounds were tested with buffer hydrolyses. The ionic strength (µ) of the buffers was 0.5, the pH-values used 4.2, 6.0, 7.4 and 9.0 and the temperatures used 37°C, 50 °C, 60 °C and 70 °C.
The half-times T½ calculated on basis of the degradation constant k obtained for each studied compound (T½=0.693/k; k = 2.303 x kk, wherein kk is the angular coefficient of the plot which illustrates the logarithm of the remaining ester as a function of time) in a buffer solution of said pH, are indicated in the Table I below, which values refer to half-times at 37°C.
The storage stability of the derivatives under different storage conditions may be estimated by determining the degradation constants at different temperatures and calculating the degradation constant k at the desired temperature from the equation of the plot corresponding to the Arrhenius equation (1), wherein log k is given as a function of [1/T]. Log k = Log A -(Ea)/(2.303R)x(1)/(T) [formula]
From the degradation constant (k) obtained at the desired temperature the shelf-life-time t10% (t10% = 0.104/k) which indicates the time during which 10% of the drug has degraded may be calculated. By way of example it may be mentioned that the t10%-time of O,O'-dipropionyl (1,4-xylylene) bispilocarpate at 4 °C is almost 500 days.

[2] = Lipophilicity: partition coefficient (octanol-buffer) and capacity factor by RP-HPLC; type: physicochemical; settings: for chromatographic logP / Capacity factor (22°C) k': rp-hplc; for chromatographic logP: reverse phase HPLC, 22°C, read-out: Capacity factor (22°C) k' (converted)
Source text: The lipophilicity of the compounds were studied by determining the partition coefficients (P) of the compounds at a pH of 7.40. The measurements were made either in an octanol-buffer mixture by determining the concentration of the compound to be studied in the buffer phase by HPLC. The partition coefficients of the very lipophilic compounds were, however, determined by reverse phase (RP) liquid chromatography (HPLC) from the retention time (Beckmann 116 pump and 166 UV detector; Marathon autom. sample feeder). […] From the results it can be seen that the compounds of the invention are considerably more lipophilic than the pilocarpine.

[3] = pKa-value determination by titration in a water-ethanol mixture (50%-50%); type: physicochemical; settings: water-ethanol 50:50; titration in water-ethanol mixture (50%-50%)
[4] = Enzyme hydrolysis in plasma/buffer pH 7.4 mixture (80%-20%); type: in vitro ADME; settings: for half-life: 80% plasma/buffer
Procedure: The half-times of enzyme hydrolysis of the novel bispilocarpates according to the invention and of known pilocarpic acid diesters were determined in a plasma/buffer pH 7.4-mixture (80%-20%) at 37°C. The degradation constants (k) for the compounds tested and determined from the plot showing the logarithm of remaining diester as a function of time and the half-lives T½ are shown in the Table II below. From the results it may be seen that in […] the stable test compound degrades under the influence of an enzyme (esterase) to a O,O'-dihydrogen bispilocarpate intermediate, which spontaneously degrades at pH 7.40 to pilocarpine. Consequently the effect of the bispilocarpate intermediate on the rate of formation of pilocarpine is very significant. The formation of pilocarpine was almost complete irrespective of the epimerization possibility of the intermediate. The amount of isopilocarpine formed varied from 0 to 10%, as also the pilocarpine formed epimerized, if the duration of hydrolysis was very long.

[5] = Corneal permeability in a diffusion chamber; type: in vitro ADME, rabbit; settings: rabbit eye cornea, diffusion chamber, epithelium side to endothelium side; read-out: Permeability coefficient Papp
Source text: The corneal permeability of pilocarpine hydrochloride and its most promising prodrug derivatives as evaluated from the tests described above were studied in a diffusion chamber, wherein the migration of the compound from the delivering phase (epithelium side) thorugh the cornea to the acceptor side (endothelium side) of the diffusion chamber. In the study, rabbit eye cornea was used. From the samples taken from the acceptor side of the diffusion chamber, both the concentration of the prodrug and the liberated drug were determined in the acceptor phase with HPLC. Thus the rate of degradation of the prodrug in the cornea was determined. The permeability coefficients (Papp, cm/s) calculated from the permeability rate (μmol/min), their […] deviations (RSD) and the number of tests, are given in the Table II below.

[6] = buffer pH 6.00, ionic strength 0.5, 37°C, read-out: Half-times in buffers at 37°C, T½, pH 6.00 (converted)
[7] = buffer pH 9.00, ionic strength 0.5, 37°C, read-out: Half-times in buffers at 37°C, T½, pH 9.00 (converted)
[8] = pH 4.2, buffer pH 4.20, ionic strength 0.5, 37°C, read-out: Half-times in buffers at 37°C, T½, pH 4.20 (converted)
[9] = pH 7.4, buffer pH 7.40, ionic strength 0.5, 37°C, read-out: Half-times in buffers at 37°C, T½, pH 7.40 (converted)
[10] = plasma/buffer pH 7.4 (80%-20%), 37°C, read-out: half-times (T½) in plasma (80%), 37°C
[11] = plasma/buffer pH 7.4 (80%-20%), 37°C
[12] = determined from the equation log k'= 0.182 Log P - 0.4086 (RP-HPLC retention)

Row | Compound | half-life [1, 6] [h] | half-life [1, 7] [h] | half-life [1, 8] [h] | half-life [1, 9] [h] | chromatographic logP [2] | pKa [3] | half-life [4, 10] [h] | Degradation coefficient (k) in plasma (80%), 37°C [4, 11] [min⁻¹] | Partition coefficient log P [2, 12] | half-life ([1]; buffer, pH 4.2) [h] | half-life ([1]; buffer, pH 6) [h] | half-life ([1]; buffer, pH 7.4) [h] | half-life ([1]; buffer, pH 9) [h] | Partition coefficient log P ([2]; pH 7.4) | Capacity factor (22°C) k' [2] | half-life ([4]; pH 7.4) [h] | Degradation coefficient (k) in plasma (80%), 37°C ([4]; pH 7.4) [min⁻¹] | Papp [5] [×10⁻⁶ cm/s]
1 | CC[C@H](C(=O)OCc1ccccc1COC(=O)[C@@H](CC)[C@H](CO)Cc1cncn1C)[C@H](CO)Cc1cncn1C [Example 3, O,O'-Dihydrogen (1,2-xylylene) bispilocarpate] | 3.35 | 0.0233 | 20.2 | 0.417 | -0.0814 | 6.3 | – | – | – | – | – | – | – | – | – | – | – | –
2 | CCCCCCCC(=O)OC[C@H](Cc1cncn1C)[C@H](CC)C(=O)OCc1ccccc1 [octanoyl, benzyl, reference compound] | – | – | – | – | – | – | 0.45 | 0.02556 | – | – | – | – | – | – | – | – | – | –
3 | CC[C@H](C(=O)OCc1ccc(COC(=O)[C@@H](CC)[C@H](COC(=O)c2ccccc2)Cc2cncn2C)cc1)[C@H](COC(=O)c1ccccc1)Cc1cncn1C [Example 14, O,O'-Dibenzoyl (1,4-xylylene) bispilocarpate] | – | 8 | – | – | 0.773 | 5.8 | 1.57 | 0.00737 | 6.4929^2 | – | – | – | – | – | – | – | – | –
4 | CC[C@H](C(=O)OCc1ccccc1)[C@H](COC(=O)/C=C/C(=O)OC[C@H](Cc1cncn1C)[C@H](CC)C(=O)OCc1ccccc1)Cc1cncn1C [Example 18, O,O'-Fumaroyl (dibenzyl) bispilocarpate] | – | – | – | – | 0.631 | 6.05 | – | – | – | 834 | 49 | 6 | 0.4 | 5.7137^2 | 4.2785 | 2.78 | 0.00415 | –
5 | CC[C@H](C(=O)OCc1ccccc1)[C@H](COC(=O)CCCC(=O)OC[C@H](Cc1cncn1C)[C@H](CC)C(=O)OCc1ccccc1)Cc1cncn1C [Example 16, O,O'-Glutaryl (dibenzyl) bispilocarpate] | 2200 | 43 | 4190 | 757 | 0.576 | 6 | – | – | 5.4093^2 | – | – | – | – | – | – | 0.233 | 0.05044 | –
6 | CC[C@H](C(=O)OCc1ccccc1)[C@H](COC(=O)CCCCC(=O)OC[C@H](Cc1cncn1C)[C@H](CC)C(=O)OCc1ccccc1)Cc1cncn1C [Example 15, O,O'-Adipoyl (dibenzyl) bispilocarpate] | – | – | – | – | 0.651 | 6 | – | – | – | 3140 | 1650 | 655 | 70 | 5.8242^2 | 4.4810 | 0.467 | 0.02487 | –
7 | CC[C@H](C(=O)OCc1ccccc1)[C@H](COC(=O)c1cccc(Cl)c1)Cc1cncn1C [3-chloro-benzoyl, benzyl, reference compound] | – | – | – | – | – | – | 0.367 | 0.03132 | – | – | – | – | – | – | – | – | – | 7.2
8 | CC[C@H](C(=O)OCc1ccccc1)[C@H](CO)Cc1cncn1C [pilocarpic acid benzyl ester] | – | – | – | – | -0.116 | 6.5 | – | – | – | – | – | – | – | – | – | – | – | –
9 | CC[C@H](C(=O)OCc1ccccc1)[C@H](COC(=O)c1ccc(C(=O)OC[C@H](Cc2cncn2C)[C@H](CC)C(=O)OCc2ccccc2)cc1)Cc1cncn1C [Example 19, O,O'-Terephtaloyl (dibenzyl) bispilocarpate] | 913 | 38 | 1580 | 55 | 0.865 | 6 | – | – | 7.0000^2 | – | – | – | – | – | – | 3.58 | 0.00322 | –
10 | CC[C@H](C(=O)OCc1ccccc1)[C@H](COC(=O)CCC(=O)OC[C@H](Cc1cncn1C)[C@H](CC)C(=O)OCc1ccccc1)Cc1cncn1C [Example 17, O,O'-Succinyl (dibenzyl) bispilocarpate] | – | – | – | – | 0.539 | 6 | – | – | – | 4760 | 2550 | 251 | 28 | 5.2038^2 | 3.4557 | 3.13 | 0.00368 | –

Further lines, results first:

Row | half-life [1, 6] [h] | half-life [1, 7] [h] | half-life [1, 8] [h] | half-life [1, 9] [h] | chromatographic logP [2] | pKa [3] | half-life [4, 10] [h] | Degradation coefficient (k) in plasma (80%), 37°C [4, 11] [min⁻¹] | Partition coefficient log P [2, 12] | half-life ([1]; buffer, pH 4.2) [h] | half-life ([1]; buffer, pH 6) [h] | half-life ([1]; buffer, pH 7.4) [h] | half-life ([1]; buffer, pH 9) [h] | Partition coefficient log P ([2]; pH 7.4) | Capacity factor (22°C) k' [2] | half-life ([4]; pH 7.4) [h] | Degradation coefficient (k) in plasma (80%), 37°C ([4]; pH 7.4) [min⁻¹] | Papp [5] [×10⁻⁶ cm/s] | Compound
11 | 18.9 | 0.167 | 120 | 2.63 | -0.182 | 6.35 | – | – | – | – | – | – | – | – | – | – | – | – | CC[C@H](C(=O)OCCCCOC(=O)[C@@H](CC)[C@H](CO)Cc1cncn1C)[C@H](CO)Cc1cncn1C [Example 7, O,O'-Dihydrogen (1,4-butylene) bispilocarpate]
12 | 29.9 | 0.3 | 81.8 | 3.35 | 0.0518 | 6.3 | – | – | – | – | – | – | – | – | – | – | – | – | CC[C@H](C(=O)OCCCCCCCOC(=O)[C@@H](CC)[C@H](CO)Cc1cncn1C)[C@H](CO)Cc1cncn1C [Example 4, O,O'-Dihydrogen (1,7-heptylene) bispilocarpate]
13 | 10.3 | 0.0667 | 67.3 | 1.2 | -0.212 | 6.4 | – | – | – | – | – | – | – | – | – | – | – | – | CC[C@H](C(=O)OCCCOC(=O)[C@@H](CC)[C@H](CO)Cc1cncn1C)[C@H](CO)Cc1cncn1C [Example 8, O,O' -Dihydrogen (1,3-propylene) bispilocarpate]
14 | 2.28 | 0.0317 | 37.6 | 0.3 | -0.0915 | 6.25 | – | – | – | – | – | – | – | – | – | – | – | – | CC[C@H](C(=O)OCc1ccc(COC(=O)[C@@H](CC)[C@H](CO)Cc2cncn2C)cc1)[C@H](CO)Cc1cncn1C [Example 1, O,O'-Dihydrogen (1,4-xylylene) bispilocarpate]
15 | 2.78 | 0.0183 | 48.8 | 0.317 | -0.0814 | 6.3 | – | – | – | – | – | – | – | – | – | – | – | – | CC[C@H](C(=O)OCc1cccc(COC(=O)[C@@H](CC)[C@H](CO)Cc2cncn2C)c1)[C@H](CO)Cc1cncn1C [Example 2, O,O'-Dihydrogen (1,3-xylylene) bispilocarpate]
16 | 24.6 | 0.233 | 73 | 2.08 | -0.123 | 6.3 | – | – | – | – | – | – | – | – | – | – | – | – | CC[C@H](C(=O)OCCCCCOC(=O)[C@@H](CC)[C@H](CO)Cc1cncn1C)[C@H](CO)Cc1cncn1C [Example 6, O,O'-Dihydrogen (1,5-pentylene) bispilocarpate]
17 | 25.1 | 0.233 | 62.6 | 2.5 | -0.0494 | 6.3 | – | – | – | – | – | – | – | – | – | – | – | – | CC[C@H](C(=O)OCCCCCCOC(=O)[C@@H](CC)[C@H](CO)Cc1cncn1C)[C@H](CO)Cc1cncn1C [Example 5, O,O'-Dihydrogen (1,6-hexylene) bispilocarpate]
